Laboratory results as given in US20150045551A1, “FUSED AZOLE DERIVATIVE” (TAISHO PHARMACEUTICAL CO., LTD, priority 2012, published 2015).
Counter-ions that a name gives are not always drawn.

Biological target: T1, Human V1b receptor (Homo sapiens, UniProt P47901)
T1 sequence (P47901 1-424): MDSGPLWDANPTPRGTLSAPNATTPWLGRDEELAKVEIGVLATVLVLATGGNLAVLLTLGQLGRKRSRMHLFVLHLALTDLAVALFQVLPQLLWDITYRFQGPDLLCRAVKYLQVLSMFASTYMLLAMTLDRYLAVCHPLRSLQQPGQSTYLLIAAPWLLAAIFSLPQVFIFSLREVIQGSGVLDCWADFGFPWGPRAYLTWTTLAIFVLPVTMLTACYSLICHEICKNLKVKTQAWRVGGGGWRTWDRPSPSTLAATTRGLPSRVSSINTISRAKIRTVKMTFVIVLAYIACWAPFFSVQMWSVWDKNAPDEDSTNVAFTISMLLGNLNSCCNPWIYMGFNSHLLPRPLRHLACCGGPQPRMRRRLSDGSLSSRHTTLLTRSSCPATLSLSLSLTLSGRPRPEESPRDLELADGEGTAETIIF
Experiment: Binding test for V1b receptor ([3H]AVP displacement, crude membrane preparation)
Set-up: expressed in transfected cells; host or cells: 293FT cells (transient expression)
Conditions: [3H]AVP 0.4 to 1 nmol/L; membranes of 293FT cells transiently expressing human V1b receptor; room temperature, 60 minutes
Method: Human V1b receptor was transiently expressed in 293FT cells, which were then recovered and homogenated in a 15 mmol/L tris-hydrochloric acid buffer (pH 7.4 and containing 2 mmol/L magnesium chloride, 0.3 mmol/L ethylenediaminetetracetic acid, and 1 mmol/L glycol ether diaminetetraacetic acid). The resulting homogenate was centrifuged at 50,000×g at 4 ° C. for 20 minutes. The precipitate was resuspended in a 75 mmol/L tris-hydrochloric acid buffer (pH 7.4 and containing 12.5 mmol/L magnesium chloride, 0.3 mmol/L ethylenediaminetetracetic acid, 1 mmol/L glycol ether diaminetetraacetic acid, and 250 mmol/L sucrose) to give a crude membrane preparation, which was stored at −80° C. until the binding test was initiated. In the binding test, the crude membrane preparation was diluted with a 50 mmol/L tris-hydrochloric acid buffer (pH 7.4 and containing 10 mmol/L magnesium chloride and 0.1% bovine serum albumin) and mixed with each test compound and [^3H]AVP (final concentration: 0.4 to 1 nmol/L), followed by incubation at room temperature for 60 minutes. The test compound was serially diluted with DMSO so that it would have final concentrations of 0.01 nmol/L to […] at the time of mixing. After the incubation, the mixture was suction filtered through a GF/C filter that was preliminarily impregnated with 0.3% polyethyleneimine. The GF/C filter was dried and after adding a scintillator, the residual radioactivity on the filter was measured using TopCount (PerkinElmer Inc.). The radioactivity in the presence of unlabeled AVP at 10 μmol/L was defined as 0%, and the radioactivity in the absence of unlabeled AVP was defined as 100%. A dose-response curve was plotted from radioactivities in the presence of a test compound at various concentrations, and the 50% inhibitory concentration (IC50 value) of the test compound was calculated.

SMILES	IC50 [nM]
CC(C)NC(=O)Cn1c(-c2cccc(Cl)c2)nc2cc(OCCCN3CCOCC3)ccc21 [Example A-2, 2-{2-(3-chlorophenyl)-5-[3-(morpholin-4-yl)propoxy]-1H-benzimidazol-1-yl}-N-isopropyl acetamide]	14.1
CC(C)NC(=O)Cn1c(-c2cccc(Cl)c2)nc2cc(OCCCN3CC4(COC4)C3)ccc21 [Example A-3, 2-{2-(3-chlorophenyl)-5-[3-(2-oxa-6-azaspiro[3.3]hept-6-yl)propoxy]-1H-benzimidazol-1-yl}-N-isopropyl acetamide]	8.3
CC(C)NC(=O)Cn1c(-c2cccc(Cl)c2)nc2cc(OCCCN3[C@@H]4CC[C@H]3COC4)ccc21 [Example A-4, 2-[2-(3-chlorophenyl)-5-{3-[(1R,5S)-3-oxa-8-azabicyclo[3.2.1]oct-8-yl]propoxy}-1H-benzimidazol-1-yl]-N-isopropyl acetamide]	5
COc1cc(-c2nc3cc(OCCCN4CC5(COC5)C4)ccc3n2CC(=O)NC(C)C)ccc1F [Example A-7, 2-{2-(4-fluoro-3-methoxyphenyl)-5-[3-(2-oxa-6-azaspiro[3.3]hept-6-yl)propoxy]-1H-benzimidazol-1-yl}-N-isopropyl acetamide]	4.8
COc1cc(-c2nc3cc(OCCCN4[C@@H]5CC[C@H]4COC5)ccc3n2CC(=O)NC(C)C)ccc1F [Example A-8, 2-[2-(4-fluoro-3-methoxyphenyl)-5-{3-[(1R,5S)-3-oxa-8-azabicyclo[3.2.1]oct-8-yl]propoxy}-1H-benzimidazol-1-yl]-N-isopropyl acetamide]	2.5
COc1cc(-c2nc3ccc(-c4cc(Cl)cc(CN(C)C)c4)cc3n2CC(=O)NC(C)C)ccc1F [Example A-10, 2-[6-{3-chloro-5-[(dimethylamino)methyl]phenyl}-2-(4-fluoro-3-methoxyphenyl)-1H-benzimidazol-1-yl]-N-isopropyl acetamide]	141
CC(C)NC(=O)Cn1c(-c2ccc(F)c(Cl)c2)nc2cc(OCCCN3CCCCC3)ccc21 [Example A-12, 2-{2-(3-chloro-4-fluorophenyl)-5-[3-(piperidin-1-yl)propoxy]-1H-benzimidazol-1-yl}-N-isopropyl acetamide hydrochloride]	7.6
CC(C)NC(=O)Cn1c(-c2ccc(F)c(Cl)c2)nc2cc(OCCCN3CC4(COC4)C3)ccc21 [Example A-15, 2-{2-(3-chloro-4-fluorophenyl)-5-[3-(2-oxa-6-azaspiro[3.3]hept-6-yl)propoxy]-1H-benzimidazol-1-yl}-N-isopropyl acetamide]	3.8
CC(C)NC(=O)Cn1c(-c2ccc(F)c(Cl)c2)nc2cc(OCCCN3[C@@H]4CC[C@H]3COC4)ccc21 [Example A-16, 2-[2-(3-chloro-4-fluorophenyl)-5-{3-[(1R,5S)-3-oxa-8-azabicyclo[3.2.1]oct-8-yl]propoxy}-1H-benzimidazol-1-yl]-N-isopropyl acetamide]	1.7
CC(C)NC(=O)Cn1c(-c2ccc(F)c(Cl)c2)nc2cc(OCCCCN3CCCCC3)ccc21 [Example A-17, 2-{2-(3-chloro-4-fluorophenyl)-5-[4-(piperidin-1-yl)butoxy]-1H-benzimidazol-1-yl}-N-isopropyl acetamide]	176
COc1cccc(-c2nc3cc(OCCCN4CCOCC4)ccc3n2CC(=O)NC(C)C)n1 [Example A-18, N-isopropyl-2-{2-(6-methoxypyridin-2-yl)-5-[3-(morpholin-4-yl)propoxy]-1H-benzimidazol-1-yl}acetamide]	83.6
COc1cc(-c2nc3cc(N4CCCN(C)CC4)ccc3n2CC(=O)NC(C)(C)C)ccc1F [Example A-19, N-tert-butyl-2-[2-(4-fluoro-3-methoxyphenyl)-5-(4-methyl-1,4-diazepan-1-yl)-1H-benzimidazol-1-yl]acetamide]	3.4
COc1cc(-c2nc3cc(N4CCCN(C(C)C)CC4)ccc3n2CC(=O)NC(C)(C)C)ccc1F [Example A-20, N-tert-butyl-2-[2-(4-fluoro-3-methoxyphenyl)-5-(4-isopropyl-1,4-diazepan-1-yl)-1H-benzimidazol-1-yl]acetamide]	8.6
COc1cc(-c2nc3cc(N4CCC(N5CCCC5)CC4)ccc3n2CC(=O)NC(C)(C)C)ccc1F [Example A-21, N-tert-butyl-2-{2-(4-fluoro-3-methoxyphenyl)-5-[4-(pyrrolidin-1-yl)piperidin-1-yl]-1H-benzimidazol-1-yl}acetamide]	1.1
CC(C)NC(=O)Cn1c(-c2ccc(F)c(Cl)c2)nc2cc(N3CCCN(C)CC3)ccc21 [Example A-22, 2-[2-(3-chloro-4-fluorophenyl)-5-(4-methyl-1,4-diazepan-1-yl)-1H-benzimidazol-1-yl]-N-isopropyl acetamide]	15.4
CN1CCCN(c2ccc3c(c2)nc(-c2ccc(F)c(Cl)c2)n3CC(=O)NC(C)(C)C)CC1 [Example A-23, N-tert-butyl-2-[2-(3-chloro-4-fluorophenyl)-5-(4-methyl-1,4-diazepan-1-yl)-1H-benzimidazol-1-yl]acetamide]	3.1
CC(C)NC(=O)Cn1c(-c2cccc(Cl)c2)cc2cc(OCCCN3CCOCC3)ccc21 [Example B-2, 2-{2-(3-chlorophenyl)-5-[3-(morpholin-4-yl)propoxy]-1H-indol-1-yl}-N-isopropyl acetamide]	6.4
CC(C)NC(=O)Cn1c(-c2cccc(Cl)c2)cc2cc(OC3CCN(C4CC4)CC3)ccc21 [Example B-3, 2-{2-(3-chlorophenyl)-5-[(1-cyclopropylpiperidin-4-yl)oxy]-1H-indol-1-yl}-N-isopropyl acetamide]	10.4
CC(C)NC(=O)Cn1c(-c2cccc(Cl)c2)cc2cc(OCCCN3CCC(O)CC3)ccc21 [Example B-6, 2-{2-(3-chlorophenyl)-5-[3-(4-hydroxypiperidin-1-yl)propoxy]-1H-indol-1-yl}-N-isopropyl acetamide]	18.4
CC(C)NC(=O)Cn1c(-c2cccc(Cl)c2)cc2cc(OCCCN3CCCC(O)C3)ccc21 (stereo not drawn) [Example B-7, 2-{2-(3-chlorophenyl)-5-[3-(3-hydroxypiperidin-1-yl)propoxy]-1H-indol-1-yl}-N-isopropyl acetamide]	73.4
CC(C)NC(=O)Cn1c(-c2cccc(Cl)c2)cc2cc(OCCCN3CCC(O)C3)ccc21 (stereo not drawn) [Example B-8, 2-{2-(3-chlorophenyl)-5-[3-(3-hydroxypyrrolidin-1-yl)propoxy]-1H-indol-1-yl}-N-isopropyl acetamide]	52.3
CC(C)NC(=O)Cn1c(-c2cccc(Cl)c2)cc2cc(OCCCN3CCC4(CC3)COC4)ccc21 [Example B-10, 2-{2-(3-chlorophenyl)-5-[3-(2-oxa-7-azaspiro[3.5]non-7-yl)propoxy]-1H-indol-1-yl}-N-isopropyl acetamide]	20.2
COc1cc(-c2cc3cc(OCCCN4CCCCC4)ccc3n2CC(=O)NC(C)C)ccc1F [Example B-11, 2-{2-(4-fluoro-3-methoxyphenyl)-5-[3-(piperidin-1-yl)propoxy]-1H-indol-1-yl}-N-isopropyl acetamide]	52.1
COc1cc(-c2cc3cc(OCCCN4CCC(O)CC4)ccc3n2CC(=O)NC(C)C)ccc1F [Example B-12, 2-{2-(4-fluoro-3-methoxyphenyl)-5-[3-(4-hydroxypiperidin-1-yl)propoxy]-1H-indol-1-yl}-N-isopropyl acetamide]	45.3
COc1cc(-c2cc3cc(OCCCN4CCCC(O)C4)ccc3n2CC(=O)NC(C)C)ccc1F (stereo not drawn) [Example B-13, 2-{2-(4-fluoro-3-methoxyphenyl)-5-[3-(3-hydroxypiperidin-1-yl)propoxy]-1H-indol-1-yl}-N-isopropyl acetamide]	87.1
COc1cc(-c2cc3cc(OCCCN4CCC(O)C4)ccc3n2CC(=O)NC(C)C)ccc1F (stereo not drawn) [Example B-14, 2-{2-(4-fluoro-3-methoxyphenyl)-5-[3-(3-hydroxypyrrolidin-1-yl)propoxy]-1H-indol-1-yl}-N-isopropyl acetamide]	87.2
COc1cc(-c2cc3cc(OCCCN4CC5(COC5)C4)ccc3n2CC(=O)NC(C)C)ccc1F [Example B-15, 2-{2-(4-fluoro-3-methoxyphenyl)-5-[3-(2-oxa-6-azaspiro[3.3]hept-6-yl)propoxy]-1H-indol-1-yl}-N-isopropyl acetamide]	8.3
